Data taken from PubChem BioAssay AID2060497 (Molecular Pharmacology Branch, DTP, NCI, 2025).
Values joined by “and” are separate entries in the source; they are usually repeats but may differ in a detail not shown here. Equal entries are not always repeated.

Test system: 317291-083-R-J1-PDC complex spheroids, viability
Assay: Anticancer human tumor 317291-083-R-J1-PDC patient-derived soft tissue sarcoma cell line growth inhibition [GQUAD]
Settings: for viability, T/C: stronger effect = lower value
From the text: DNA G-quadruplex Stabilizer Agents in Combinations in Complex Spheroids
A high-throughput screen of multi-cell type tumor spheroids was designed to identify active combinations of DNA G-quadruplex stabilizer agents and targeted small molecules. Complex spheroids include a stromal component modeled by human endothelial cells (HUVEC) and fibroblasts modeled by human mesenchymal stem cells (MSCs). The concentration ranges selected for each drug and investigational agent were based upon clinically achievable concentrations if the clinical Cmax of the agent was known.
Compounds. The drugs and investigational agents: pidnarulex (CX-5461; NSC782164), APTO-253 (NSC789042), BRACO-19 (NSC847499), peposertib (NSC802822), ceralasertib (NSC780249), elimusertib (NSC800525), camonsertib (NSC841442), AZD-1390 (NSC803789), olaparib (NSC753686), talazoparib (NSC767125), ART-558 (NSC835418), sotorasib (NSC818433), MRTX-1133 (NSC836407), SN-38 (NSC673596), topotecan (NSC609699), etoposide (NSC141540), doxorubicin (NSC123127), gemcitabine (NSC613327), 5-fluorouracil (NSC19893), paclitaxel (NSC125973), vemurafenib (NSC761431), panobinostat (NSC761190), R-306465 (JNJ-16241199; NSC773264), adavosertib (NSC754352), TP-3654 (NSC805149), carboplatin (NSC241240), KSQ-4279 (NSC840948), and staurosporine (NSC755774) were obtained from the National Cancer Institute (NCI) Developmental Therapeutics Program Chemical Repository (34). The FDA-approved anticancer drug set is available from the NCI Developmental Therapeutics Program. […] The stock solutions were prepared in dimethyl sulfoxide (DMSO, Sigma-Aldrich, St. Louis, MO, cat. D2650) at 800-fold the tested concentration and stored at -70 degrees C prior to their use. All drugs and investigational agents were tested over a range starting from a high concentration at or near the clinical Cmax and decreasing in half-log increments. If the clinical Cmax for an agent had not been determined, the highest concentration tested was 10 microM.
2.3 Cell Culture. All cells were maintained in an incubator at 37 degrees C and 5% CO2 with 95% humidity. The PDC lines were cultured according to standard operating procedures established by the NCI PDMR. All PDCs were thawed and cultured in Matrigel-coated flasks prepared with a working solution of 1X Ham's F-12 nutrient mix, without supplementation (Invitrogen, cat. 11765054), 100 U/mL penicillin-streptomycin (Invitrogen, cat. 15140122), and 2.5% Matrigel (Corning Inc., cat. 354248) for the first three passages. The 857933-349-R-J2-PDC line was cultured in 6C/Colon 1B media, which includes advanced DMEM/F-12 (Thermo Fisher Scientific, cat. 12634028), 10 mM HEPES (Thermo Fisher Scientific, cat. 15630080), 1X GlutaMAX supplement (Thermo Fisher Scientific, cat. 35050061), 0.1 mg/mL primocin (InvivoGen, cat. ant-pm-2), 10% defined fetal bovine serum, heat inactivated (HyClone Laboratories Inc., cat. SH30070.03HI), 50% L-WRN conditioned media (ATCC, cat. CRL-3276), 1.25 mM N-Acetyl-L-cysteine (Sigma-Aldrich, cat. A9165), 10 mM nicotinamide (Sigma-Aldrich, cat. N0636), 1X B-27 supplement (Thermo Fisher Scientific, cat. 17504044), 1X N-2 supplement (Thermo Fisher Scientific, cat. 17502048), 10 microM Y-27632 dihydrochloride (Tocris Bioscience, cat. 1254), and 50 ng/mL human EGF recombinant protein (Thermo Fisher Scientific, cat. PHG0311). The 485176-168-R4-J1-PDC line was cultured in Panc media, which includes all 6C/Colon 1B media components plus 100 ng/mL human FGF-10 (Thermo Fisher Scientific, cat. 100-26), 500 nM SB-431542 (Selleckchem, cat. S1067), and gastrin (Tocris, cat. 3006).
[…]
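Also: spheroids exposed to compounds for one week before readout.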
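For viability, T/C in this document: percent viability relative to DMSO vehicle wells taken as 100%.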

`CC(=O)O[C@H]1C(=O)[C@@]2(C)[C@H]([C@H](OC(=O)c3ccccc3)[C@]3(O)C[C@H](OC(=O)[C@H](O)[C@@H](NC(=O)c4ccccc4)c4ccccc4)C(C)=C1C3(C)C)[C@]1(OC(C)=O)CO[C@@H]1C[C@@H]2O` was tested, and the viability, T/C (compound 0.0316 µM) was 57.3% and 36.6% and 33.9%, the viability, T/C (compound 0.1 µM) was 20.6% and 16.7% and 10.5% and the viability, T/C (compound 0.316 µM) was 13.1% and 15.6% and 6.57%. For the same compound, the viability, T/C (compound 1 µM) was 12.8% and 15.3% and 9.02%, the viability, T/C (compound 3.16 µM) was 12.2% and 9.53% and 10.6% and the viability, T/C (compound 10 µM) was 12.3% and 12.5% and 12.1%. For the same compound, the IC50 (curve of compound) was 39.7 nM and < 31.6 nM.
`CCCS(=O)(=O)Nc1ccc(F)c(C(=O)c2c[nH]c3ncc(-c4ccc(Cl)cc4)cc23)c1F` + Cc1[nH]c2ccc(F)cc2c1-c1nc2c3cccnc3c3ncccc3c2[nH]1 showed an IC50 (curve of first compound, second compound 0.0316 µM) of 2610 nM, an IC50 (curve of first compound, second compound 0.1 µM) of 2610 nM and an IC50 (curve of first compound, second compound 0.316 µM) of 1760 nM. For the same compound, the IC50 (curve of first compound, second compound 1 µM) was 343 nM, the IC50 (curve of first compound, second compound 3.16 µM) was under 31.6 nM and the IC50 (curve of first compound, second compound 10 µM) was under 31.6 nM. It also gave a viability, T/C (second compound 0.0316 µM, first compound 0.0316 µM) of 110%, a viability, T/C (second compound 0.0316 µM, first compound 0.1 µM) of 103% and a viability, T/C (second compound 0.0316 µM, first compound 0.316 µM) of 95.6%. For the same compound, the viability, T/C (second compound 0.0316 µM, first compound 1 µM) was 89.2%, the viability, T/C (second compound 0.0316 µM, first compound 3.16 µM) was 41.7% and the viability, T/C (second compound 0.0316 µM, first compound 10 µM) was 14.3%. The viability, T/C (second compound 0.1 µM, first compound 0.0316 µM) was 95.5%, the viability, T/C (second compound 0.1 µM, first compound 0.1 µM) was 88.3% and the viability, T/C (second compound 0.1 µM, first compound 0.316 µM) was 83.5%. For the same compound, the viability, T/C (second compound 0.1 µM, first compound 1 µM) was 94.3%, the viability, T/C (second compound 0.1 µM, first compound 3.16 µM) was 41.9% and the viability, T/C (second compound 0.1 µM, first compound 10 µM) was 14%. It also gave a viability, T/C (second compound 0.316 µM, first compound 0.0316 µM) of 73.5%, a viability, T/C (second compound 0.316 µM, first compound 0.1 µM) of 72.5% and a viability, T/C (second compound 0.316 µM, first compound 0.316 µM) of 67.1%. For the same compound, the viability, T/C (second compound 0.316 µM, first compound 1 µM) was 67.8%, the viability, T/C (second compound 0.316 µM, first compound 3.16 µM) was 31.7% and the viability, T/C (second compound 0.316 µM, first compound 10 µM) was 10.3%. For the same compound, the viability, T/C (second compound 1 µM, first compound 0.0316 µM) was 62.1%, the viability, T/C (second compound 1 µM, first compound 0.1 µM) was 61% and the viability, T/C (second compound 1 µM, first compound 0.316 µM) was 41.5%. The viability, T/C (second compound 1 µM, first compound 1 µM) was 41.6%, the viability, T/C (second compound 1 µM, first compound 3.16 µM) was 37.7% and the viability, T/C (second compound 1 µM, first compound 10 µM) was 11.3%. It also gave a viability, T/C (second compound 3.16 µM, first compound 0.0316 µM) of 46%, a viability, T/C (second compound 3.16 µM, first compound 0.1 µM) of 26.5% and a viability, T/C (second compound 3.16 µM, first compound 0.316 µM) of 30.2%. It also gave a viability, T/C (second compound 3.16 µM, first compound 1 µM) of 19.9%, a viability, T/C (second compound 3.16 µM, first compound 3.16 µM) of 15.9% and a viability, T/C (second compound 3.16 µM, first compound 10 µM) of 5.4%. For the same compound, the viability, T/C (second compound 10 µM, first compound 0.0316 µM) was 40.7%, the viability, T/C (second compound 10 µM, first compound 0.1 µM) was 47.5% and the viability, T/C (second compound 10 µM, first compound 0.316 µM) was 42.4%. It also gave a viability, T/C (second compound 10 µM, first compound 1 µM) of 49.3%, a viability, T/C (second compound 10 µM, first compound 3.16 µM) of 25.3% and a viability, T/C (second compound 10 µM, first compound 10 µM) of 6.95%.
`CC1COCCN1c1cc(C2(O)CC3CCC(C2)O3)c2cnn(-c3ccn[nH]3)c2n1` (stereo unspecified) was tested, and the viability, T/C (compound 0.0316 µM) was 57.9% and 71.5% and 44.9%, the viability, T/C (compound 0.1 µM) was 37.3% and 29.8% and 26.9% and the viability, T/C (compound 0.316 µM) was 14.3% and 11.5% and 14.8%. For the same compound, the viability, T/C (compound 1 µM) was 20.7% and 20.3% and 15.5%, the viability, T/C (compound 3.16 µM) was 14.6% and 11.3% and 12.4% and the viability, T/C (compound 10 µM) was 2.47% and 3.18% and 2.04%. The IC50 (curve of compound) was 46.9 nM and 56.9 nM and < 31.6 nM.
`Cn1ncnc1[C@H]1c2n[nH]c(=O)c3cc(F)cc(c23)N[C@@H]1c1ccc(F)cc1` was tested, and the viability, T/C (compound 0.000999 µM) was 123% and 104% (2×), the viability, T/C (compound 0.00316 µM) was 109% and 92.2% and 102% and the viability, T/C (compound 0.00999 µM) was 99.7% and 95.3% and 94.3%. The viability, T/C (compound 0.0316 µM) was 86.2% and 89.7% and 90.5%, the viability, T/C (compound 0.0999 µM) was 98.2% and 67.3% and 84.9% and the viability, T/C (compound 0.316 µM) was 64.2% and 62.6% and 69%. The IC50 (curve of compound) was over 316 nM.
In the case of `COc1ncnc(C2CC2)c1-c1ncc2cnn(Cc3ccc(-c4nc(C(F)(F)F)cn4C(C)C)cc3)c2n1`, the viability, T/C (compound 0.0316 µM) is reported as 103% and 107% and 108%, the viability, T/C (compound 0.1 µM) is reported as 92.9% and 85.3% and 81.5% and the viability, T/C (compound 0.316 µM) is reported as 92.4% and 71.4% and 68.1%. For the same compound, the viability, T/C (compound 1 µM) was 74.2% and 64.1% and 68.2%, the viability, T/C (compound 3.16 µM) was 100% and 63.6% and 68.3% and the viability, T/C (compound 10 µM) was 76.2% and 72.3% and 64.5%. The IC50 (curve of compound) was over 10000 nM.
In the case of `O=C(c1cc(Cc2n[nH]c(=O)c3ccccc23)ccc1F)N1CCN(C(=O)C2CC2)CC1`, the viability, T/C (compound 0.0316 µM) is reported as 111% and 115% and 109%, the viability, T/C (compound 0.1 µM) is reported as 96.5% and 83.9% and 97.3% and the viability, T/C (compound 0.316 µM) is reported as 120% and 96.5% and 93.9%. The viability, T/C (compound 1 µM) was 88.7% and 107% and 99.4%, the viability, T/C (compound 3.16 µM) was 87.6% and 84.9% and 93.7% and the viability, T/C (compound 10 µM) was 71% and 58.2% and 59.2%. The IC50 (curve of compound) was over 10000 nM.
In the case of `Nc1ccn(C2OC(CO)C(O)C2(F)F)c(=O)n1` (stereo unspecified), the viability, T/C (compound 0.0316 µM) is reported as 55.7% and 53.6% and 61.2%, the viability, T/C (compound 0.1 µM) is reported as 16.2% and 24.2% and 38% and the viability, T/C (compound 0.316 µM) is reported as 16.1% and 12.7% and 9.59%. For the same compound, the viability, T/C (compound 1 µM) was 13.7% and 10.9% and 8.17%, the viability, T/C (compound 3.16 µM) was 10.1% and 14.3% and 9.39% and the viability, T/C (compound 10 µM) was 9.89% and 13.5% and 8.25%. For the same compound, the IC50 (curve of compound) was 37.3 nM and 36.3 nM and 55.1 nM.
With `CCCS(=O)(=O)Nc1ccc(F)c(C(=O)c2c[nH]c3ncc(-c4ccc(Cl)cc4)cc23)c1F` the viability, T/C (compound 0.0316 µM) was 104% and 114% and 118%, the viability, T/C (compound 0.1 µM) was 97.3% and 110% and 95% and the viability, T/C (compound 0.316 µM) was 102% and 113% and 121%. The viability, T/C (compound 1 µM) was 86.6% and 83.1% and 87%, the viability, T/C (compound 3.16 µM) was 46.4% and 66% and 62.4% and the viability, T/C (compound 10 µM) was 12.2% and 13.6% and 14.5%. The IC50 (curve of compound) was 2840 nM and 4300 nM and 4140 nM.
